Data on three compounds can be found in US11629143B2, “HipK4 inhibitors and uses thereof” (Vibliome Therapeutics, LLC, priority 2020, dated 2023).

One assay deals with T1, AXL (Homo sapiens, UniProt P30530).
T1 sequence (P30530 26-894): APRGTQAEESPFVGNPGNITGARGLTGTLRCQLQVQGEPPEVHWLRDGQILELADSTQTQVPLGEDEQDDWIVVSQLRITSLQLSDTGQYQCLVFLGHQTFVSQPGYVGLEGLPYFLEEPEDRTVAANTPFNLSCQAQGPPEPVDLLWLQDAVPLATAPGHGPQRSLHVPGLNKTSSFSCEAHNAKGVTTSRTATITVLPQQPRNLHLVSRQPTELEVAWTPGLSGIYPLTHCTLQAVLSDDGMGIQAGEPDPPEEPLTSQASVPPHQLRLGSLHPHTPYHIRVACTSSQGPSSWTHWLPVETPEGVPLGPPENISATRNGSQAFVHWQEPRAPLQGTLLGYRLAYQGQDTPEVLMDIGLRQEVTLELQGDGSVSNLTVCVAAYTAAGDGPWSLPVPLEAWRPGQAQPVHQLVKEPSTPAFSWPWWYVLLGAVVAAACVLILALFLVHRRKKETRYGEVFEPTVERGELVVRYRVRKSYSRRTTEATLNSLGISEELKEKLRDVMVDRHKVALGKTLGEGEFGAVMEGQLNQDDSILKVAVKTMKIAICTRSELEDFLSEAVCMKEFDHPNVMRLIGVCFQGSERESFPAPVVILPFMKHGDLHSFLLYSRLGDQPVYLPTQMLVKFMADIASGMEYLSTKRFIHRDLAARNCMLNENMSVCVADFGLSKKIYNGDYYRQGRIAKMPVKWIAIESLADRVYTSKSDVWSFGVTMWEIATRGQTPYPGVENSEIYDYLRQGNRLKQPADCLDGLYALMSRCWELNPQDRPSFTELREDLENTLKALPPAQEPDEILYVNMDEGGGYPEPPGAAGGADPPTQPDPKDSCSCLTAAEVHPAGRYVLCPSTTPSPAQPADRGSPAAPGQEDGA
In words: Kinase panel (mobility shift). The class given is biochemical. The method, then:
(§1) The disclosed compounds were tested for activity against a panel of 299 kinases. The target enzyme was incubated with fluorescently labeled substrate and test compounds in a standardized reaction mixture in 384 well plates. Upon termination of the reaction, samples were introduced onto microfluidic chips. The samples migrated through channels in the chips and product and substrate were separated based on the difference in their charge (electrophoretic mobility shift). Enzyme activity was measured by direct comparison of the fluorescence in the product and substrate peaks. […] In the tables A=95% or greater at 5 um, B=90%-94% at 5 um, and C=80%-89% at 5 um. [note to draft: we included category D for 50-79 and category E is less than 50%. Feel free to remove if not needed)

For a further assay, the target named is T2, EPH-A6 (Homo sapiens, UniProt Q9UF33).
T2 sequence (Q9UF33 23-1036): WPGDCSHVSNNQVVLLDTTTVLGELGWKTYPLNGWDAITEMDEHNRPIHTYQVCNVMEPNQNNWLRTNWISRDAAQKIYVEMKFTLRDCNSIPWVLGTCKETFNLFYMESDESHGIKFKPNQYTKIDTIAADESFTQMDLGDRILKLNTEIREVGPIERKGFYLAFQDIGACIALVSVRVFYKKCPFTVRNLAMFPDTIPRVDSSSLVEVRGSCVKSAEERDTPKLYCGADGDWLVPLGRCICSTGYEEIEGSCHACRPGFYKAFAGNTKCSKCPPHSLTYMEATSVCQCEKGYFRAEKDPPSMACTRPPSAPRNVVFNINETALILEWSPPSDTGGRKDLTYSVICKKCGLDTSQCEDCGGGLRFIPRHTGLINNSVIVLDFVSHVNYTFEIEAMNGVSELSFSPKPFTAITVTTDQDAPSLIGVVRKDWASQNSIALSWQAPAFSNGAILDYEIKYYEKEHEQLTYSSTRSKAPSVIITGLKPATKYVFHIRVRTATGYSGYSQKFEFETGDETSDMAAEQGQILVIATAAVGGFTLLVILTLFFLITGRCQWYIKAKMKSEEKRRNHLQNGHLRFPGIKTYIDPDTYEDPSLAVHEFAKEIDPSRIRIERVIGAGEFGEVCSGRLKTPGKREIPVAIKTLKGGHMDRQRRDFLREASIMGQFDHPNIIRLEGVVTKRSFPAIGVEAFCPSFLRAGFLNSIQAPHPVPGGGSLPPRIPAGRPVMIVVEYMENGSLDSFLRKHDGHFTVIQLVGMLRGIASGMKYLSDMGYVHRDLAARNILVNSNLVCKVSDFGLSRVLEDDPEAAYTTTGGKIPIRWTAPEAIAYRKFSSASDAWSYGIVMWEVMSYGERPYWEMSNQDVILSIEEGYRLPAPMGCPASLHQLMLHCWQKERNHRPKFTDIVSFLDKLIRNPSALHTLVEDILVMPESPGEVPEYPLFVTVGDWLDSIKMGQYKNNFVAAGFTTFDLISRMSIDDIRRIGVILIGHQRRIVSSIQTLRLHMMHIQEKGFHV
The experiment in a line: Kinase panel (mobility shift). Type of assay: biochemical. The method, then: as §1

As usually defined, the inhibition is the drop in the measured response relative to a control, in per cent. As for `CNC(=O)c1cc(Oc2ccc(NC(=O)c3nc(SC)oc3-c3ccc(F)cc3F)cc2)ccn1` [Compound 6], the results for the inhibition at 5 µM on AXL and on EPH-A6 were 80 to 89% and ≥ 95%, respectively.
The corresponding values for `CNC(=O)c1cc(Oc2ccc(NC(=O)c3nc(SC)oc3-c3ccc(Cl)s3)cc2)ccn1` [Compound 5] are < 50% and 50 to 79%.
The corresponding values for `CNC(=O)c1cc(Oc2ccc(NC(=O)c3nc(NC)oc3-c3ccc(F)cc3)cc2F)ccn1` [Compound 14] are < 50% and 80 to 89%.
